Experimental data: ChEMBL document CHEMBL5154748, “Discovery of novel 3-butyl-6-benzyloxyphthalide Mannich base derivatives as multifunctional agents against Alzheimer's disease” (Bioorg Med Chem, 2022)
pIC50: −log10 of the molar value. Calls of active or inactive are those of the source. The calls are words filed in the database; no cut-off is given here.

How the values were obtained:
[1] = target: Butyrylcholinesterase (Rattus norvegicus) (UniProt Q9JKC1); test: Inhibition of Rat BuChE at 10 uM by Ellman's method
[2] = target: T1, Amine oxidase [flavin-containing] B (Homo sapiens, UniProt P27338); test: Inhibition of human MAO-B by fluorescence assay
T1 sequence (P27338 whole entry): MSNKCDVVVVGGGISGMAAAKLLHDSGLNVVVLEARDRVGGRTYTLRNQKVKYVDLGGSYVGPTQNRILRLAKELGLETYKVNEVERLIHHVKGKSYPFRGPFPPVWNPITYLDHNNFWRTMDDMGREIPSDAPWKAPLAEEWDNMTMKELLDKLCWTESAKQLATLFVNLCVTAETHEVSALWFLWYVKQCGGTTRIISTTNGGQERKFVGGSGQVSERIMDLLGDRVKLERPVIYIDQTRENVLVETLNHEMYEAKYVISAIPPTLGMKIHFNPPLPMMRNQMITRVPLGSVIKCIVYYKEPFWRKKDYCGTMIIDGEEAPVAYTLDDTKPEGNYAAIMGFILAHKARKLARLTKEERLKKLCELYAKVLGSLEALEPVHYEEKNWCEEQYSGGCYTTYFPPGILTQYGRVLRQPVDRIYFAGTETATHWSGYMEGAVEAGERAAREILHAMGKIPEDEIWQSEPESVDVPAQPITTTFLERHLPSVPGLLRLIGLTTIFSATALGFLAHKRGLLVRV

Acetylcholinesterase [3] = target: T2, Acetylcholinesterase (Homo sapiens, UniProt P22303); test: Inhibition of Human AChE by Ellman's method
Acetylcholinesterase [4] = target: Acetylcholinesterase (Electrophorus electricus, UniProt O42275); test: Inhibition of Electric eel AChE by Ellman's method
[5] = Antioxidant activity assessed as trolox equivalent of ORAC radical scavenging activity by ORAC-FL assay; type: functional
[6] = target: T3, Amine oxidase [flavin-containing] A (Homo sapiens, UniProt P21397); test: Inhibition of human MAO-A at 10 uM by fluorescence assay
T3 sequence (P21397 whole entry): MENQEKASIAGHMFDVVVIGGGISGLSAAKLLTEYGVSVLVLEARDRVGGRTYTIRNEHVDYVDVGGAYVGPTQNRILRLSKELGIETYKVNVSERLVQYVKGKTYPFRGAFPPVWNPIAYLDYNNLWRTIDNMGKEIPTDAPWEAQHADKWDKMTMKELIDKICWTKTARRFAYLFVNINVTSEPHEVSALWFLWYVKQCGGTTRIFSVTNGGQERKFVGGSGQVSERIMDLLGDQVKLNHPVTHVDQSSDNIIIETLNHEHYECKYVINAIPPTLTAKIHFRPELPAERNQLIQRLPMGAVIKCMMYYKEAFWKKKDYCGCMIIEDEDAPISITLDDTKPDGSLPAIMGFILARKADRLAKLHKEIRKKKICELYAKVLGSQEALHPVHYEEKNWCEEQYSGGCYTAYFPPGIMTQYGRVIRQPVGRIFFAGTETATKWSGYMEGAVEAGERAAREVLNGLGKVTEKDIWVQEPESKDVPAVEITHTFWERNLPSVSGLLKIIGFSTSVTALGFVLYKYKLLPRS

[7] = target: Acetylcholinesterase (Electrophorus electricus) (UniProt O42275); test: Inhibition of Electric eel AChE at 10 uM by Ellman's method
[8] = target: T1, Amine oxidase [flavin-containing] B; test: Inhibition of human MAO-B at 10 uM by fluorescence assay
BV-2 [9] = test: Antineuroinflammatory activity in mouse BV-2 cells assessed as inhibition of LPS-induced NO production at 2.5 uM after 24 hrs by Griess reagent based assay; type: functional
PC-12 [10] = test: Neuroprotective against H2O2-induced rat PC-12 cell injury assessed as cell viability at 10 uM by MTT assay (reference value: 48.0%); type: functional; conditions: read-out: Activity
BV-2 [11] = test: Antineuroinflammatory activity in mouse BV-2 cells assessed as inhibition of LPS-induced TNF-alpha production at 0.5 uM after 24 hrs by ELISA; type: functional
BV-2 [12] = test: Antineuroinflammatory activity in mouse BV-2 cells assessed as inhibition of LPS-induced TNF-alpha production at 10 uM after 24 hrs by ELISA; type: functional
BV-2 [13] = test: Antineuroinflammatory activity in mouse BV-2 cells assessed as inhibition of LPS-induced TNF-alpha production at 2.5 uM after 24 hrs by ELISA; type: functional
BV-2 [14] = test: Antineuroinflammatory activity in mouse BV-2 cells assessed as inhibition of LPS-induced NO production at 10 uM after 24 hrs by Griess reagent based assay; type: functional
BV-2 [15] = test: Antineuroinflammatory activity in mouse BV-2 cells assessed as inhibition of LPS-induced NO production at 0.5 uM after 24 hrs by Griess reagent based assay; type: functional
BV-2 [16] = test: Inhibition of LPS-induced ROS production in mouse BV-2 cells at 10 uM by DCFH-DA staining based fluorescence analysis; type: functional, cell-based
[17] = Inhibition of reactive oxygen species production using Cu-ascorbate redox system by coumarin-3-carboxylic acid dye based fluorescence analysis; type: functional
PC-12 [18] = test: Cytotoxicity against rat PC12 cells assessed as decrease in cell viability at 100 uM by MTT assay; type: toxicity, cell-based; conditions: pc-12, 100 µM
PC-12 [19] = test: Neuroprotective against H2O2-induced rat PC-12 cell injury assessed as cell viability at 4 uM by MTT assay (reference value: 48.0%); type: functional; conditions: read-out: Activity
[20] = Metal chelating activity assessed as Cu2+-compound complex formation at 37.5 uM by UV-visible spectrophotometry
PC-12 [21] = test: Neuroprotective against H2O2-induced rat PC-12 cell injury assessed as cell viability at 25 uM by MTT assay (reference value: 48.0%); type: functional; conditions: read-out: Activity
BV-2 [22] = test: Cytotoxicity against mouse BV-2 cells at 10 uM in presence of LPS by MTT method; type: toxicity, cell-based; conditions: bv-2, 10 µM
Acetylcholinesterase [23] = target: T2, Acetylcholinesterase; test: Mixed type inhibition of AChE (unknown origin) by Lineweaver-Burk plot analysis
BV-2 [24] = test: Cytotoxicity against mouse BV-2 cells at 10 uM by MTT method; type: toxicity, cell-based; conditions: bv-2, 10 µM
BV-2 [25] = test: Inhibition of LPS-induced ROS production in mouse BV-2 cells assessed as complete reversal at 10 uM by DCFH-DA staining based fluorescence analysis; type: functional, cell-based
BV-2 [26] = test: Inhibition of LPS-induced ROS production in mouse BV-2 cells at 2.5 uM by DCFH-DA staining based fluorescence analysis; type: functional, cell-based

T2 sequence (P22303 whole entry): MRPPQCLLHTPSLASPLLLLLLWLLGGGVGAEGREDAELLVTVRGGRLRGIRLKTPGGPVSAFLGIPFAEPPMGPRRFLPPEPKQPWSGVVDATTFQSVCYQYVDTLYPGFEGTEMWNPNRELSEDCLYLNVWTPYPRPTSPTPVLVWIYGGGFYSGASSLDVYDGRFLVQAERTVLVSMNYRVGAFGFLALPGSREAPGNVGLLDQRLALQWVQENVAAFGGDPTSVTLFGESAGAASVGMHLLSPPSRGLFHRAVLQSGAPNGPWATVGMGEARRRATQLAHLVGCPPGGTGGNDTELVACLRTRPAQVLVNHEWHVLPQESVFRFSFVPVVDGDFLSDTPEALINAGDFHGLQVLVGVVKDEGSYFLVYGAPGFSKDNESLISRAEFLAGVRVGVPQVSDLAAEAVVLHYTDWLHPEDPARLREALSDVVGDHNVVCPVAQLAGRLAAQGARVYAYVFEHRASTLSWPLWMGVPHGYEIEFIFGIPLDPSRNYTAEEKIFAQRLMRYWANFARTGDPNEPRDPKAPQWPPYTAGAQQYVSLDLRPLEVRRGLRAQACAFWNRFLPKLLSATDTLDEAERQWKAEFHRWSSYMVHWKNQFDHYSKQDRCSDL
Chain of Acetylcholinesterase (Electrophorus electricus, UniProt O42275) (O42275 whole entry): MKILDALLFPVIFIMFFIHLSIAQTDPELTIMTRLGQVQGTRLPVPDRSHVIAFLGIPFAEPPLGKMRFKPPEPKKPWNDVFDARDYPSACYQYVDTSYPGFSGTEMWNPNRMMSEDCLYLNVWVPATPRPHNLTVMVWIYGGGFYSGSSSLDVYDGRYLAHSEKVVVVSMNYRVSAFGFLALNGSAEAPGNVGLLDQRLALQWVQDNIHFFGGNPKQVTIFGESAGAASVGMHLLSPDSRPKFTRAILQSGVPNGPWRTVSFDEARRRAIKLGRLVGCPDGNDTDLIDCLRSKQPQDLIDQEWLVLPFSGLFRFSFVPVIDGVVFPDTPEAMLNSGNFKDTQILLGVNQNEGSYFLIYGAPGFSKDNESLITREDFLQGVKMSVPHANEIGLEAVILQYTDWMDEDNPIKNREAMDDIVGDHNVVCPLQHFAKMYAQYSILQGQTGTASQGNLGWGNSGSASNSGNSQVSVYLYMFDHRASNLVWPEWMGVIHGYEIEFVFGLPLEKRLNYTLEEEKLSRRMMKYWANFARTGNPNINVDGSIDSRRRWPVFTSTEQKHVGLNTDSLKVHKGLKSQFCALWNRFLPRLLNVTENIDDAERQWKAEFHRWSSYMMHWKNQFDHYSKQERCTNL
Chain of Butyrylcholinesterase (Rattus norvegicus) (Q9JKC1 as listed by the source): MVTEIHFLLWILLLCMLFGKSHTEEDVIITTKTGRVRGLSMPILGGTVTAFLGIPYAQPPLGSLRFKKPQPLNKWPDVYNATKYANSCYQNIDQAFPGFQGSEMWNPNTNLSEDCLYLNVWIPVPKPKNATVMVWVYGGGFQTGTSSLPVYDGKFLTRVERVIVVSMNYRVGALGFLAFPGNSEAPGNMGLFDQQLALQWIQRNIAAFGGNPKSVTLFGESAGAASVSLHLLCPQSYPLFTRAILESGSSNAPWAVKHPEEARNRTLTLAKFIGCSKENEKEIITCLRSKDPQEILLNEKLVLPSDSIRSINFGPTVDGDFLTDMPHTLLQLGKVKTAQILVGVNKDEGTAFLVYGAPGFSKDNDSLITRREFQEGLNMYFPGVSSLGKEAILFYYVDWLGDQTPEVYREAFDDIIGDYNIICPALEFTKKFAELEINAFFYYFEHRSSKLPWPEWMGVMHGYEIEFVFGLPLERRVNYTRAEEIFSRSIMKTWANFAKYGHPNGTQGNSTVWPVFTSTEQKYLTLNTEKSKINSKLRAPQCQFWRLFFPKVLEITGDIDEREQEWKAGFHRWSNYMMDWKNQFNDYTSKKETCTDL
Chain of Acetylcholinesterase (Electrophorus electricus) (O42275 24-633 limits assumed): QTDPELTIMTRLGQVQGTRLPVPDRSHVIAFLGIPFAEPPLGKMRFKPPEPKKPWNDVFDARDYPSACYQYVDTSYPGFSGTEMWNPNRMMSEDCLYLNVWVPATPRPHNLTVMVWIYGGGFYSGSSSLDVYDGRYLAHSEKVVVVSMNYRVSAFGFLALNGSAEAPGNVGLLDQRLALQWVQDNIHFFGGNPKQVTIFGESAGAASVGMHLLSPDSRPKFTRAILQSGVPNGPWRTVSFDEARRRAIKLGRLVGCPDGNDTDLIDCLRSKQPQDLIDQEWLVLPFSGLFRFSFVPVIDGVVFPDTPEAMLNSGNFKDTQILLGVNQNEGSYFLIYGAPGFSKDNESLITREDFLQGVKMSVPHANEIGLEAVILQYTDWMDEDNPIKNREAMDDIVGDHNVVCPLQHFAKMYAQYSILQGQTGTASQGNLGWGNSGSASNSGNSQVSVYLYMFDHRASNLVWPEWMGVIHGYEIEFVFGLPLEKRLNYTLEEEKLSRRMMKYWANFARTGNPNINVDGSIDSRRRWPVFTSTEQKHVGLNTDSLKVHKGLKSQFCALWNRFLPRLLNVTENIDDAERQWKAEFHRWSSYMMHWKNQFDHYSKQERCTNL

Structure (SMILES)	inhibition [1]	pIC50 [2]	pIC50 (Acetylcholinesterase [3])	pIC50 (Acetylcholinesterase [4])	Activity [5]	inhibition at 10 µM [6]	inhibition at 10 µM [8]	other results
CCCCC1OC(=O)c2cc(OCc3ccc(CN4CCCC4)c(O)c3)ccc21 (configuration not stated)	10%	6.03	5.41	6.05	1.73	23.7%	–	–
CCCCC1OC(=O)c2cc(OCc3ccc(CN(CC)CC)c(O)c3)ccc21 (configuration not stated)	8.1%	5.17	6.46	6.19	1.53	26.3%	–	–
CCCCC1OC(=O)c2cc(OCc3cccc(CN4CCN(C)CC4)c3O)ccc21 (configuration not stated)	< 5%	–	–	–	2.33	12.5%	32.3%	inhibition [7]: 29.4%
CCCCC1OC(=O)c2cc(OCc3cccc(CN4CCN(CC)CC4)c3O)ccc21 (configuration not stated)	< 5%	–	–	–	1.67	12.8%	28.8%	inhibition [7]: 20.7%
CCCCC1OC(=O)c2cc(OCc3cccc(CN(CC)CC)c3O)ccc21 (configuration not stated)	< 5%	–	–	4.68	2.02	20.4%	5.2%	–
CCCCC1OC(=O)c2cc(OCc3ccc(CN4CCN(C)CC4)c(O)c3)ccc21 (configuration not stated)	< 5%	5.62	4.62	4.87	0.96	22.5%	–	–
CCCCC1OC(=O)c2cc(OCc3ccc(CN4CCN(CC)CC4)c(O)c3)ccc21 (configuration not stated)	6.5%	5.60	–	4.83	0.77	17.5%	–	–
CCCCC1OC(=O)c2cc(OCc3cccc(O)c3)ccc21 (configuration not stated)	< 5%	5.48	–	–	0.88	29.3%	–	inhibition [7]: 38.6%
CCCCC1OC(=O)c2ccccc21 (racemic) [RAC-3-N-BUTYLPHTHALIDE]	–	–	–	–	0.21	–	–	inhibition at 2.5 µM (BV-2 [9]): 22.9%; viability at 10 µM (PC-12 [10]): 64.1%; inhibition at 0.5 µM (BV-2 [11]): 15.2%; inhibition at 10 µM (BV-2 [12]): 43.7%; inhibition at 2.5 µM (BV-2 [13]): 27.6%; inhibition at 10 µM (BV-2 [14]): 37.2%; inhibition at 0.5 µM (BV-2 [15]): 13.4%; inhibition (BV-2 [16]): Active
CCCCC1OC(=O)c2cc(OCc3cccc(CN(CC)Cc4ccccc4)c3O)ccc21 (configuration not stated)	< 5%	–	–	–	1.86	5.4%	12.5%	inhibition [7]: 15.3%
CCCCC1OC(=O)c2cc(OCc3cccc(CN4CCOCC4)c3O)ccc21 (configuration not stated)	5.8%	5.12	–	4.65	2.14	18.4%	–	–
CCCCC1OC(=O)c2cc(OCc3ccccc3O)ccc21 (configuration not stated)	< 5%	5.68	–	–	1.03	30.3%	–	inhibition [7]: 20.3%
CCCCC1OC(=O)c2cc(OCc3ccc(CN4CCCCC4)c(O)c3)ccc21 (configuration not stated)	< 5%	6.52	7.39	7.06	1.86	18.1%	–	inhibition [17]: Active; Activity (PC-12 [18]): Toxic; inhibition at 2.5 µM (BV-2 [9]): 43.5%; viability at 4 µM (PC-12 [19]): 56.3%; Activity [20]: Active; viability at 25 µM (PC-12 [21]): 80.2%; Activity (BV-2 [22]): Non-Toxic; inhibition (Acetylcholinesterase [23]): Active; viability at 10 µM (PC-12 [10]): 71.1%; inhibition at 0.5 µM (BV-2 [11]): 32.7%; inhibition at 10 µM (BV-2 [12]): 63.2%; inhibition at 2.5 µM (BV-2 [13]): 47.8%; Activity (BV-2 [24]): Non-Toxic; inhibition (BV-2 [25]): Active; inhibition (BV-2 [26]): Active; inhibition at 10 µM (BV-2 [14]): 58.9%; inhibition at 0.5 µM (BV-2 [15]): 30.4%
CCCCC1OC(=O)c2cc(OCc3cccc(CN4CCCCC4)c3O)ccc21 (configuration not stated)	14.2%	–	–	4.84	1.84	20%	12.8%	–
CCCCC1OC(=O)c2cc(OCc3ccc(CN4CCOCC4)c(O)c3)ccc21 (configuration not stated)	< 5%	5.85	5.48	5.08	1.12	27.9%	–	–
CCCCC1OC(=O)c2cc(OCc3cccc(CN4CCCC4)c3O)ccc21 (configuration not stated)	5.8%	–	–	4.57	2.38	23.5%	6.9%	–
CCCCC1OC(=O)c2cc(OCc3ccc(CN(CC)Cc4ccccc4)c(O)c3)ccc21 (configuration not stated)	5.6%	5.71	–	4.69	1.15	14.8%	–	–
CCCCC1OC(=O)c2cc(OCc3ccc(CN(C)C)c(O)c3)ccc21 (configuration not stated)	11.8%	5.16	5.06	5.27	1.62	29%	–	–
